In PubChem BioAssay AID651569 (Sanford-Burnham Center for Chemical Genomics, 2012):
Calls of active or inactive are those of the source. No rule for the calls is given here.

Tested on: luminescent cytotoxicity (cell viability) counter-screen
Assay: cytotoxicity of Gli-SUFU antagonist hits, dose response, cytotoxicity control for Gli-SUFU antagonist project, cell-based, luminescence, uHTS hits (AID 651569);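 also: compound exposure lasted overnight before the viability readout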

Row | SMILES | IC50
1 | Brc1ccc(-c2c[n+]3c(n2-c2ccccc2)SCC3)cc1 | > 20 µM (inactive)
2 | CC(C)=CCC/C(C)=C/CNC(=O)C[C@H]1C[C@H](C(=O)N2CCOCC2)[C@@]2(C)c3[nH]c4cc(CCC(=O)N(C)C)ccc4c3CCN2C1=O | > 20 µM (inactive)
3 | Cc1nc2ccccc2n1Cc1ccc(Br)cc1 | > 20 µM (inactive)
4 | CCN(CC)S(=O)(=O)c1ccc(S(=O)(=O)N2CCCC(C(=O)NC3CC3)C2)cc1 (stereo not drawn) | > 20 µM (inactive)
5 | COc1ccc2c(c1)c(C)cc[n+]2Cc1ccccc1 | > 20 µM (inactive)
6 | O=C(NCCc1cccc(Cl)c1)c1ccc(OC2CCN(Cc3ccccn3)CC2)cc1 | > 20 µM (inactive)
7 | C/C(=N\Nc1ccc(Cl)nn1)c1ccccc1O | > 20 µM (inactive)
8 | Clc1ccc(-c2cn(-c3ccccc3)c3[n+]2CCS3)cc1 | > 20 µM (inactive)
9 | COc1nnc(-c2ccc(N3CCCCC3)c(N)c2)c2ccccc12 | > 20 µM (inactive)
10 | Cc1ccc(S(=O)(=O)N2CCN(C(=O)c3ccc(S(=O)(=O)N4CCCC4)cc3)CC2)cc1 | > 20 µM (inactive)
11 | Cc1nc2ccccc2c2oc(C(=O)N3CCN(C4CCCCC4)CC3)cc12 | > 20 µM (inactive)
12 | CC(C)C(=O)NC(=S)/C=C1/N(C)c2ccccc2C1(C)C | > 20 µM (inactive)
13 | O=C1N/C(=C\c2ccc(O)cc2)C(O)=C1C=NCc1ccccc1 | 4.41 µM
14 | Cc1ccc(C(=O)N2CCN3C(=O)c4ccccc4C23c2ccc(Cl)cc2)cc1 (stereo not drawn) | > 20 µM (inactive)
15 | CCc1cc(C(=O)NC2CCCN(Cc3ccccc3F)C2)n(C)n1 (stereo not drawn) | > 20 µM (inactive)
16 | CCn1c(=O)cc(SCC(=O)N2CCN(C3CCCCC3)CC2)c2ccccc21 | > 20 µM (inactive)
17 | Cc1nn(C)c(C)c1/C=C/C(=O)c1ccc(Cl)cc1Cl | > 20 µM (inactive)
18 | O=c1c2ccccc2nc2n1C(CSCc1cccc(C(F)(F)F)c1)CS2 (stereo not drawn) | > 20 µM (inactive)
19 | CC(C)C[C@H]1CN=C(N(C)C)N1CCCCc1ccccc1 | > 20 µM (inactive)
20 | Cc1cc(-c2ccccc2)cc(-c2ccccc2)[n+]1C | > 20 µM (inactive)
21 | O=C(N[C@@H]1C/C=C\C[C@@H](CC(=O)N(CCO)Cc2ccccc2)C(=O)NCCOC1=O)OCC1c2ccccc2-c2ccccc21 | > 20 µM (inactive)
22 | FC(F)(F)c1ccc(N2CCN(c3cc(-c4ccccc4)nc4ncnn34)CC2)nc1 | > 20 µM (inactive)
23 | CCCCc1ccc(NC(=O)C(=O)NCCN2CCN(Cc3ccc([N+](=O)[O-])cc3)CC2)cc1 | > 20 µM (inactive)
24 | CN(Cc1nccs1)C(=O)c1cc(COc2cccc3cnccc23)on1 | > 20 µM (inactive)

Row | SMILES | IC50
25 | COc1ccc(NS(=O)(=O)c2ccc(N3CCOCC3)c(N)c2)cc1 | > 20 µM (inactive)
26 | O=C(c1cc2sccc2n1Cc1ccc(F)cc1)N1CCN(c2nc3ccccc3s2)CC1 | > 20 µM (inactive)
27 | O=C(c1cccc(S(=O)(=O)N2CCN(c3ccccc3)CC2)c1)N1CCCC(C(F)(F)F)C1 (stereo not drawn) | > 20 µM (inactive)
28 | C[n+]1c2n(c3ccccc31)N=C(c1ccccc1)CS2 | > 20 µM (inactive)
29 | CCOC(=O)c1sc2nc(CC(=O)OC)nc(NCc3ccc(Cl)cc3)c2c1C | > 20 µM (inactive)
30 | Cc1ccsc1CNc1ncnc2ccc(-c3c(C)noc3C)cc12 | > 20 µM (inactive)
31 | CC(Sc1nc2ccccc2c(=O)n1C)C(=O)NC1CCCCC1C (stereo not drawn) | 16.7 µM
32 | Cc1ncoc1C(=O)NC1CCCc2c1cnn2-c1ccc(C(C)(C)C)cc1 (stereo not drawn) | > 20 µM (inactive)
33 | CC[N+](C)(CC)CCC(c1ccccc1)C1CCCCC1 (stereo not drawn) | > 20 µM (inactive)
34 | Brc1ccc(-[n+]2c(-c3ccccc3)cc(-c3ccccc3)cc2-c2ccccc2)cc1 | > 20 µM (inactive)
35 | Cc1ccc(C)c(-c2csc(NC(=O)C3=COCCO3)n2)c1 | > 20 µM (inactive)
36 | O=C(COC(=O)c1ccc2[nH]c3c(c2c1)CCCC3)Nc1ccccc1Cl | > 20 µM (inactive)
37 | C[n+]1c2n(c3ccccc31)N=C(c1ccc(-c3ccccc3)cc1)CS2 | > 20 µM (inactive)
38 | CC1Cc2cc(S(=O)(=O)N3CCC(C(=O)N4CCN(c5ccccc5F)CC4)CC3)ccc2N1C(=O)C1CC1 (stereo not drawn) | 7.01 µM
39 | COc1ccc(-n2cc(-c3ccc(OC(F)F)cc3)[n+]3c2CCCCC3)cc1 | > 20 µM (inactive)
40 | COc1cc(C(=O)NC2CCN(C)CC2)ccc1Nc1ncc2c(n1)N(C1CCCCC1)CCC(=O)N2C | 15.7 µM
41 | O=C(N/N=C/c1cc2ccccc2nc1Cl)[C@H]1C[C@@H]1c1ccccc1 | > 20 µM (inactive)
42 | c1ccc(-c2cn(-c3ccccc3)c3[n+]2CCS3)cc1 | > 20 µM (inactive)
43 | Cn1nc(CC(=O)NCc2ccc(C(F)(F)F)cc2)c2ccccc2c1=O | > 20 µM (inactive)
44 | COc1ccc(CN(C)C(=O)c2cccc(NC(=O)CC3SC(N4CCCCC4)=NC3=O)c2)c(OC)c1 (stereo not drawn) | > 20 µM (inactive)
45 | O=C(Nc1ccccc1)C1=C[C@H](C2CCCCC2)C[C@H](OCCCCO)O1 | > 20 µM (inactive)
46 | COc1ccc(CC(=O)Nc2cccc(S(=O)(=O)N3CCCCCC3)c2)cc1OC | > 20 µM (inactive)
47 | COc1ccc(CN2CCC(C(=O)Nc3ccc(Oc4cccnc4)cc3)CC2)c(C)c1C | 19.5 µM
48 | O=C(N[C@@H]1C/C=C\C[C@@H](CC(=O)N(CCO)Cc2ccccc2)C(=O)NC[C@H](c2ccccc2)OC1=O)OCC1c2ccccc2-c2ccccc21 | > 20 µM (inactive)

Row | SMILES | IC50
49 | CCCC(C)C(=O)Nc1nc(C)c(-c2csc(Nc3ccc(Cl)cc3)n2)s1 (stereo not drawn) | > 20 µM (inactive)
50 | CC(Sc1nc2ccccc2c(=O)n1C)C(=O)N(C)C1CCCCC1 (stereo not drawn) | > 20 µM (inactive)
51 | CCN(CC)S(=O)(=O)c1ccc(S(=O)(=O)Nc2c(C)nn(C)c2C)cc1 | > 20 µM (inactive)
52 | Cc1cc(C)c[n+](C(C)C(=O)c2ccc(-c3ccccc3)cc2)c1 (stereo not drawn) | > 20 µM (inactive)
53 | CCCCOC(=O)c1[nH]c2c(c1C)C(=O)CC(c1cc(OC)c(OC)c(OC)c1)C2 (stereo not drawn) | > 20 µM (inactive)
54 | Nc1ccc(Br)cc1-c1nc2ccccc2[nH]c1=O | > 20 µM (inactive)
55 | CCc1nc(N)nc(N)c1-c1ccc(N(C)Cc2ccccc2)c([N+](=O)[O-])c1 | 18.4 µM
56 | C[N+]1=C(/C=C/Nc2ccccc2)C(C)(C)c2ccccc21 | > 20 µM (inactive)
57 | NC(=O)c1ccccc1OCC(=O)N1CCC(Cc2ccccc2)CC1 | > 20 µM (inactive)
58 | CC1CCCCC1NS(=O)(=O)c1ccc(S(=O)(=O)NCc2ccncc2)cc1 (stereo not drawn) | > 20 µM (inactive)
59 | CCOC(=O)c1c(NC(=O)COc2ncnc3ccccc23)sc(C(C)=O)c1C | > 20 µM (inactive)
60 | Cc1ccc(C2=C(CC(=O)O)C(=O)CC2)cc1 | > 20 µM (inactive)
61 | O=C(Nc1cccc(C(F)(F)F)c1)C1CCN(S(=O)(=O)c2ccc(N3CCCC3=O)cc2)CC1 | > 20 µM (inactive)
62 | COc1ccccc1CN(Cc1nc2ccccc2c(=O)[nH]1)S(=O)(=O)c1ccc(C)cc1 | > 20 µM (inactive)
63 | CCCCCCCOc1ccc(OC(=O)c2cccnc2)cc1 | > 20 µM (inactive)
64 | COc1ccccc1N1CCN(c2ncc(C(=O)N3CCN(c4cccc(Cl)c4)CC3)c3ccccc23)CC1 | > 20 µM (inactive)
65 | COCCNc1nc2c(c(=O)n(C)c(=O)n2C)n1Cc1cccc(C)c1 | > 20 µM (inactive)
66 | Cc1nc2sccn2c1-c1csc(NCc2ccccc2)n1 | > 20 µM (inactive)
67 | COc1ccc(CN(C)Cc2nc(Cc3cccc(F)c3)no2)c2cccnc12 | > 20 µM (inactive)
68 | O=C(C[n+]1cc(-c2ccccc2)n2c1CCCCC2)c1ccc(Cl)cc1 | > 20 µM (inactive)
69 | CCc1ccc(CN(C)C(=O)c2cc(COc3cccc4cnccc34)on2)cc1 | > 20 µM (inactive)
70 | CCn1c(=NC(=O)CS(=O)(=O)c2ccccc2)sc2cccc(OC)c21 | > 20 µM (inactive)
71 | CCOP(=O)(CCP(=O)(OCC)OCC)OCC.C[CH2][Sn]([Cl])([Cl])[CH2]C | 12.6 µM
72 | COc1ccccc1NS(=O)(=O)c1cccc(C(=O)NC2CCN(Cc3ccccc3)CC2)c1 | > 20 µM (inactive)

Row | SMILES | IC50
73 | O=C(C[C@H]1C/C=C\C[C@H](NC(=O)OCC2c3ccccc3-c3ccccc32)C(=O)OC[C@@H]2CCCN2C1=O)N[C@H](CO)Cc1ccccc1 | > 20 µM (inactive)
74 | S=C(Nc1ccccc1)N1CCC(Cc2ccccc2)CC1 | > 20 µM (inactive)
75 | O=C(Nc1ccccc1)C1=C[C@@H](C2CCCCC2)C[C@@H](OCCCCO)O1 | > 20 µM (inactive)
76 | CCOC(=O)C1CCCN(S(=O)(=O)c2ccc(S(=O)(=O)N(CC)CC)cc2)C1 (stereo not drawn) | > 20 µM (inactive)
77 | C=CCOC(=O)c1[nH]c2c(c1C)C(=O)CC(c1cc(OC)c(OC)c(OC)c1)C2 (stereo not drawn) | > 20 µM (inactive)
78 | CCn1c(C)nc2cc(-c3nnc(-c4c(-c5ccccc5)noc4C)o3)ccc21 | > 20 µM (inactive)
79 | COc1cccc(/C=C/c2ccncc2)c1OC | > 20 µM (inactive)
80 | O=C(NC1CCCC1)c1cc(COc2ccc3ncccc3c2)on1 | > 20 µM (inactive)
81 | Cc1nc2ccccc2n1CC(=O)NC(C)C1CC2CCC1C2 (stereo not drawn) | > 20 µM (inactive)
82 | Clc1ccc(-n2cc(-c3ccc(Br)cc3)[n+]3c2CCCCC3)cc1 | > 20 µM (inactive)
83 | CCCCCCn1c(=O)c(C(=O)Nc2cnccn2)c(O)c2ccccc21 | > 20 µM (inactive)
84 | CCN(CC(=O)Nc1c(F)cccc1F)C(=O)c1cc(S(=O)(=O)N(CC)CC)ccc1N1CCCCC1 | 9.1 µM
85 | COC(=O)c1cc(S(=O)(=O)N2CCC(c3cc(OC)ccc3OC)C2)c[nH]1 (stereo not drawn) | > 20 µM (inactive)
86 | C[C@@H]1COC(=O)[C@H](NC(=O)OCC2c3ccccc3-c3ccccc32)C/C=C\C[C@@H](CC(=O)N[C@@H](CO)Cc2ccccc2)C(=O)N1 | > 20 µM (inactive)
87 | CCCCOc1ccc(N2C(N)=NC(N)=NC23CCCCC3)cc1 | > 20 µM (inactive)
88 | COc1ccc(-c2noc(CCCCC(=O)N3CCN(c4cc(C)ccc4C)CC3)n2)cc1 | > 20 µM (inactive)
89 | O=S(=O)(c1ccc2c(c1)nc(COc1ccc(Cl)cc1)n2CC1CCCO1)N1CCOCC1 (stereo not drawn) | > 20 µM (inactive)
90 | CCCN1CCC(=O)N([C@H](CSc2ccc(OC)cc2)Cc2ccccc2)CC1 | > 20 µM (inactive)
91 | Cc1cc(C)nc(/N=C(\N)Nc2ccccc2-c2ccccc2)n1 | 18.4 µM
92 | CCOc1ccc(NC(=S)NNc2ccnc3cc(Cl)ccc23)cc1 | > 20 µM (inactive)
93 | CCOC(CN=c1nc(N(C)C)ss1)OCC | 18.6 µM
